One may read the EC50 as the concentration needed to bring the measured effect to its halfway point. High values mean a need for much substance, low ones an effect from little substance. The logP is a log measure of how a compound divides between an organic and an aqueous phase. A low value points to lower lipophilicity.

Data set [1] relates to Plasmodium falciparum. Put plainly: Antiplasmodial activity against Plasmodium falciparum. Type of data set: functional, organism-based.
Data set [2] can be described thus: Cytotoxicity against HEK cells. Format: cell-based. To be noted: Homo sapiens, HEK293.
Data set [3] concerns Trypanosoma brucei. Put plainly: Antitrypanosomal activity against bloodstream Trypanosoma brucei P2 by Alamar blue assay. Type of data set: functional, organism-based.
The nature of data set [4]: Lipophilicity, log P of the compound. Type of data set: physicochemical. To be noted: octanol/water.

The structures appear in SMILES notation.

In the case of `c1ccc2c(c1)ccc1ccc(C3CNCCNCCNCCN3)cc12` (stereo unspecified), the values for the EC50 in data set [1], in data set [2] and in data set [3] were under 1.5 µM, 24.9 µM and 1.3 µM, respectively.

Turning to `N=C(N)NCc1ccc(C2CNCCNCCNCCN2)cc1` (stereo unspecified), the results for the EC50 in data set [1], in data set [2] and in data set [3] were over 100 µM, over 200 µM and 41.2 µM, respectively. In data set [4], this molecule showed a log partition coefficient (logP) of -1.64.

Turning to `N=C(N)c1ccc(C2CNCCNCCNCCN2)cc1` (stereo unspecified), the concentration for a half-maximal effect (EC50) in data set [1] is over 100 µM; in data set [2] it was over 200 µM; in data set [3], 22 µM. The lipophilicity (logP) in data set [4] is -1.44.

As for `O=C(Nc1ccc([N+](=O)[O-])cc1)OCCN1CCN(CCOC(=O)Nc2ccc([N+](=O)[O-])cc2)CCN(CCOC(=O)Nc2ccc([N+](=O)[O-])cc2)CCN(CCOC(=O)Nc2ccc([N+](=O)[O-])cc2)CC1`, the EC50 is 1.3 µM in data set [2] and 0.5 µM in data set [3].

For the molecule `NCc1ccc(C2CNCCNCCNCCN2)cc1` (stereo unspecified), the concentration giving a half-maximal response (EC50) in data set [1] is over 100 µM; in data set [2], over 200 µM; in data set [3] it was over 200 µM. This molecule also registered a logP in data set [4] of -1.12.

With `N#Cc1ccc(C2CNCCNCCNCCN2)cc1` (stereo unspecified), the half-maximal effective concentration (EC50) in data set [1] was over 100 µM; in data set [2] it was over 200 µM; in data set [3] it was over 200 µM. The molecule also gave a log partition coefficient (logP) in data set [4] of -0.65.

The values are drawn from ChEMBL document CHEMBL1142482, “Synthesis of novel benzamidine- and guanidine-derived polyazamacrocycles: Selective anti-protozoal activity for human African trypanosomiasis” (Bioorg Med Chem Lett, 2008).
